Patent US10815230B2, “Casein kinase 1 delta inhibitor” (ELECTROPHORETICS LIMITED, priority 2015, dated 2020)

Key:
Assay type in all cases: biochemical
CK1a1 = CK1a1 (Homo sapiens, UniProt P48729); experiment: Kinase selectivity, % remaining activity; details: CK1a1, 10 μM compound, 10 μM ATP, duplicate
Method: (§1) Compounds were tested in single dose duplicate mode at a concentration of 10 μM (in DMSO) and reactions were carried out at 10 μM ATP, Table 3 reports the % of remaining activity (relative to DMSO).

ABL2/ARG = ABL2/ARG (Homo sapiens, UniProt P42684); experiment: Kinase selectivity, % remaining activity; details: 10 μM compound, 10 μM ATP, duplicate
Method: (§2) A two-tier strategy to determine the selectivity of compound A was applied: first, the compound was tested at a single concentration (in duplicate) to determine the %-remaining activity of the target kinase. Subsequently, the IC50 of compound A and comparative compounds for casein kinase 1 delta were determined.
as §1

ALK5/TGFBR1 = molecular target: T1, ALK5/TGFBR1 (Homo sapiens, UniProt P36897); experiment: Kinase selectivity, % remaining activity; details: 10 μM compound, 10 μM ATP, duplicate
T1 sequence (P36897 34-503): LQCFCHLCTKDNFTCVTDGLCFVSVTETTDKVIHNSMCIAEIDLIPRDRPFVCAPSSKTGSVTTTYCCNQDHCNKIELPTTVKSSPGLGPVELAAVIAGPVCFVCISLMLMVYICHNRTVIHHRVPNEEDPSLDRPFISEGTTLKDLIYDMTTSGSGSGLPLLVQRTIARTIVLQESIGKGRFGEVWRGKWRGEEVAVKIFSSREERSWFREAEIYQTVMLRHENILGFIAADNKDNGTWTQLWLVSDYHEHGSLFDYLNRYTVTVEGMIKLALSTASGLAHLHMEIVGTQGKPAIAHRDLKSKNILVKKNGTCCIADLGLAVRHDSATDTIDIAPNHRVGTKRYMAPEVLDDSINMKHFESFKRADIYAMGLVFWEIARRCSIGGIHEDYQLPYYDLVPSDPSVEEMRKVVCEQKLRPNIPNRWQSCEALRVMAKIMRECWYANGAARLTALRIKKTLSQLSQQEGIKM
Method: as §2, §1

CDK5/p25 = CDK5/p25 (Homo sapiens, UniProt Q00535); experiment: Kinase selectivity, % remaining activity; details: 10 μM compound, 10 μM ATP, duplicate
Method: as §2, §1

CK1e = CK1e (Homo sapiens, UniProt P49674); experiment: Kinase selectivity, % remaining activity; details: 10 μM compound, 10 μM ATP, duplicate
Method: as §2, §1

CK1g1 = CK1g1 (Homo sapiens, UniProt Q9HCP0); experiment: Kinase selectivity, % remaining activity; details: 10 μM compound, 10 μM ATP, duplicate
Method: as §2, §1

CK1g2 = CK1g2 (Homo sapiens, UniProt P78368); experiment: Kinase selectivity, % remaining activity; details: 10 μM compound, 10 μM ATP, duplicate
Method: as §2, §1

CK1g3 = CK1g3 (Homo sapiens, UniProt Q9Y6M4); experiment: Kinase selectivity, % remaining activity; details: 10 μM compound, 10 μM ATP, duplicate
Method: as §2, §1

CLK2 = CLK2 (Homo sapiens, UniProt P49760); experiment: Kinase selectivity, % remaining activity; details: 10 μM compound, 10 μM ATP, duplicate
Method: as §2, §1

EGFR = EGFR (Homo sapiens, UniProt P00533); experiment: Kinase selectivity, % remaining activity; details: 10 μM compound, 10 μM ATP, duplicate
Method: as §2, §1

EPHA2 = EPHA2 (Homo sapiens, UniProt P29317); experiment: Kinase selectivity, % remaining activity; details: 10 μM compound, 10 μM ATP, duplicate
Method: as §2, §1

FGFR1 = FGFR1 (Homo sapiens, UniProt P11362); experiment: Kinase selectivity, % remaining activity; details: 10 μM compound, 10 μM ATP, duplicate
Method: as §2, §1

GSK3B = GSK3B (Homo sapiens, UniProt P49841); experiment: Kinase selectivity, % remaining activity; details: 10 μM compound, 10 μM ATP, duplicate
Method: as §2, §1

JNK2 = JNK2 (Homo sapiens, UniProt P45984); experiment: Kinase selectivity, % remaining activity; details: 10 μM compound, 10 μM ATP, duplicate
Method: as §2, §1

KDR/VEGFR2 = KDR/VEGFR2 (Homo sapiens, UniProt P35968); experiment: Kinase selectivity, % remaining activity; details: 10 μM compound, 10 μM ATP, duplicate
Method: as §2, §1

LCK = LCK (Homo sapiens, UniProt P06239); experiment: Kinase selectivity, % remaining activity; details: 10 μM compound, 10 μM ATP, duplicate
Method: as §2, §1

MSK1/RPS6KA5 = MSK1/RPS6KA5 (Homo sapiens, UniProt O75582); experiment: Kinase selectivity, % remaining activity; details: 10 μM compound, 10 μM ATP, duplicate
Method: as §2, §1

P38a/MAPK14 = P38a/MAPK14 (Homo sapiens, UniProt Q16539); experiment: Kinase selectivity, % remaining activity; details: 10 μM compound, 10 μM ATP, duplicate
Method: as §2, §1

PDK1/PDPK1 = molecular target: T2, PDK1/PDPK1 (Homo sapiens, UniProt O15530); experiment: Kinase selectivity, % remaining activity; details: 10 μM compound, 10 μM ATP, duplicate
T2 sequence (O15530 1-556): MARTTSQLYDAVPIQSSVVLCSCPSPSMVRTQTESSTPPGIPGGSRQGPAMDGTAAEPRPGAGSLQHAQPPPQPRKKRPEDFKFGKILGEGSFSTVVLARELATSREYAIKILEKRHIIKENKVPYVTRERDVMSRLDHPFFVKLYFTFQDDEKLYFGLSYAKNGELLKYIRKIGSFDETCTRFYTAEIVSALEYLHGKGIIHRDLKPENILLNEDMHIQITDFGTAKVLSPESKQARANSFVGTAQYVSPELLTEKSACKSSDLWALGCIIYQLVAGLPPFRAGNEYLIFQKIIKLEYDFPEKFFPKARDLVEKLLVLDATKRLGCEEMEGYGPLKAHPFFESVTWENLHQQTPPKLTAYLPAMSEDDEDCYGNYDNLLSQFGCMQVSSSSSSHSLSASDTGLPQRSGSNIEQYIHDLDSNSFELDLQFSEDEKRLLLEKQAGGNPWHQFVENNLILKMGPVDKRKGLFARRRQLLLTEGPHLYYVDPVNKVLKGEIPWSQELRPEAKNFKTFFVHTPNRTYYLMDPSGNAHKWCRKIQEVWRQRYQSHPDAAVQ
Method: as §2, §1

PIM3 = PIM3 (Homo sapiens, UniProt Q86V86); experiment: Kinase selectivity, % remaining activity; details: 10 μM compound, 10 μM ATP, duplicate
Method: as §2, §1

PKA = PKA (Homo sapiens, UniProt P17612); experiment: Kinase selectivity, % remaining activity; details: 10 μM compound, 10 μM ATP, duplicate
Method: as §2, §1

PKCb2 = PKCb2 (Homo sapiens, UniProt P05771); experiment: Kinase selectivity, % remaining activity; details: 10 μM compound, 10 μM ATP, duplicate
Method: as §2, §1

RIPK2 = RIPK2 (Homo sapiens, UniProt O43353); experiment: Kinase selectivity, % remaining activity; details: 10 μM compound, 10 μM ATP, duplicate
Method: as §2, §1

ROCK1 = ROCK1 (Homo sapiens, UniProt Q13464); experiment: Kinase selectivity, % remaining activity; details: 10 μM compound, 10 μM ATP, duplicate
Method: as §2, §1

TNIK = TNIK (Homo sapiens, UniProt Q9UKE5); experiment: Kinase selectivity, % remaining activity; details: 10 μM compound, 10 μM ATP, duplicate
Method: as §2, §1

YES/YES1 = YES/YES1 (Homo sapiens, UniProt P07947); experiment: Kinase selectivity, % remaining activity; details: 10 μM compound, 10 μM ATP, duplicate
Method: as §2, §1

[1] = molecular target: CK1d (casein kinase 1 delta) (Homo sapiens, UniProt P48730); experiment: Kinase selectivity, % remaining activity and IC50; details: 10 μM ATP; for IC50: casein kinase 1 delta, 10-dose, 3 fold serial dilution
Method: as §2, §1
Control compound GW5074 (Tocris®) was tested starting at 20 μM. Reactions were carried out at 10 μM ATP.

[2] = read-out: % of remaining activity (relative to DMSO)

Sequence of CK1d (casein kinase 1 delta) (P48730 whole entry): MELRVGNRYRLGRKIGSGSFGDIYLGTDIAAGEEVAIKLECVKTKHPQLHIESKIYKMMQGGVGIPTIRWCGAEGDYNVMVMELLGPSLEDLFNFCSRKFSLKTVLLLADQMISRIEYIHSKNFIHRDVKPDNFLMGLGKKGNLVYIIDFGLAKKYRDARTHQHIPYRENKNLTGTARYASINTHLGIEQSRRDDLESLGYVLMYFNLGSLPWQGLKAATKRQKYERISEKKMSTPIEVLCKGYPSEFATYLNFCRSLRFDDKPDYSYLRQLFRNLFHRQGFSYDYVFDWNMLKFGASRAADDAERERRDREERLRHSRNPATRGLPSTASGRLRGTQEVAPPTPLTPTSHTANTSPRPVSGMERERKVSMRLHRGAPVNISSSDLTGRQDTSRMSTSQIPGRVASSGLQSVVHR
Sequence of EPHA2 (P29317 24-976): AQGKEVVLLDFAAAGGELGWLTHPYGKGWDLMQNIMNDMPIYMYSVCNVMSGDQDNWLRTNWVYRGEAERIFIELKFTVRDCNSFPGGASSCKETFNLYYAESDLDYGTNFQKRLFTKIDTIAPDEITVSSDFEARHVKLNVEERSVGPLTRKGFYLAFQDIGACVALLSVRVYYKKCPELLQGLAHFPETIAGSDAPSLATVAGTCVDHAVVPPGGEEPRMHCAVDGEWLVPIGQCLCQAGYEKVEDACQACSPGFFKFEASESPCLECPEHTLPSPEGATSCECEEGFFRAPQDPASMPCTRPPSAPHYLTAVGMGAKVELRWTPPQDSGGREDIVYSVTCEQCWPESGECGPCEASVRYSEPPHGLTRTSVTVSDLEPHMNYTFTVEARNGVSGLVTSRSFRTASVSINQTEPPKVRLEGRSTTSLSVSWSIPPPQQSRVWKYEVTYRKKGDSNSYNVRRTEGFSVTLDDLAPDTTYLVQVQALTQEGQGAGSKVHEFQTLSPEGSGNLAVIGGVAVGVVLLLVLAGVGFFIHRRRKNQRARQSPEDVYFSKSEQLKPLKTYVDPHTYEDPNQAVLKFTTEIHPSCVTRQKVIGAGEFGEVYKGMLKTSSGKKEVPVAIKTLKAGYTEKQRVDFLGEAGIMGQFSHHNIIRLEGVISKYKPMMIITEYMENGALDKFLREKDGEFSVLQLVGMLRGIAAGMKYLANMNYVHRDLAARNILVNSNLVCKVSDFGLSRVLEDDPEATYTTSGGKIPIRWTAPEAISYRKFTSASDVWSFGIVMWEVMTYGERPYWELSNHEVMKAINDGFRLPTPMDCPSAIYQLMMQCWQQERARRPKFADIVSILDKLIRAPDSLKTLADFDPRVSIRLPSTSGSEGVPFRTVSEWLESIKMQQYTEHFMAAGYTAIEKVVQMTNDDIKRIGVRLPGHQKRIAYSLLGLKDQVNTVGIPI
Sequence of CK1g2 (P78368 whole entry, species assumed): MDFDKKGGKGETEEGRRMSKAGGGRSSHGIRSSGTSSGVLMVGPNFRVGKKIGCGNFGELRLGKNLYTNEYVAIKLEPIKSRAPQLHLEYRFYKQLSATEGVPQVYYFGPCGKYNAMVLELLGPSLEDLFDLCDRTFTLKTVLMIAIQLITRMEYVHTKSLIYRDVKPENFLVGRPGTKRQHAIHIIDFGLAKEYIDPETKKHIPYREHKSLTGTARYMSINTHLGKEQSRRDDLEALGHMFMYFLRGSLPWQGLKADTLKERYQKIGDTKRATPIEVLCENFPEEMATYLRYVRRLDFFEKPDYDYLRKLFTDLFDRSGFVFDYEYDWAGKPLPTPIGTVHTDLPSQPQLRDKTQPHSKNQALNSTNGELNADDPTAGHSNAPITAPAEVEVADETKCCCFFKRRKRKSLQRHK
Sequence of YES/YES1 (P07947 whole entry): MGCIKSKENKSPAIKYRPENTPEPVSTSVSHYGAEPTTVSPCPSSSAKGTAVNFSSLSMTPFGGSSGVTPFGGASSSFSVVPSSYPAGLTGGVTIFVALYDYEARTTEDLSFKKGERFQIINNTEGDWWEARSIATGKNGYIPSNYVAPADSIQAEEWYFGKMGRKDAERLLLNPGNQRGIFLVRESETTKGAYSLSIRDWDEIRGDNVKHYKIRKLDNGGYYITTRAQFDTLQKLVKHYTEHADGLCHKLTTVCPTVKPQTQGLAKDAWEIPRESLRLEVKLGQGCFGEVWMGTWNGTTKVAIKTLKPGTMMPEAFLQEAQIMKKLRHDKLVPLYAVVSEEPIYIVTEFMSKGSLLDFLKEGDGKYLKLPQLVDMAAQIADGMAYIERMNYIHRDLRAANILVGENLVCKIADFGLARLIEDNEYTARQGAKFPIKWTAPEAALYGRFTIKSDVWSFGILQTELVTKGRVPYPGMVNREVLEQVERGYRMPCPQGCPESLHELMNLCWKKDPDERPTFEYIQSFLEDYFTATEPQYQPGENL
Sequence of FGFR1 (P11362 22-822): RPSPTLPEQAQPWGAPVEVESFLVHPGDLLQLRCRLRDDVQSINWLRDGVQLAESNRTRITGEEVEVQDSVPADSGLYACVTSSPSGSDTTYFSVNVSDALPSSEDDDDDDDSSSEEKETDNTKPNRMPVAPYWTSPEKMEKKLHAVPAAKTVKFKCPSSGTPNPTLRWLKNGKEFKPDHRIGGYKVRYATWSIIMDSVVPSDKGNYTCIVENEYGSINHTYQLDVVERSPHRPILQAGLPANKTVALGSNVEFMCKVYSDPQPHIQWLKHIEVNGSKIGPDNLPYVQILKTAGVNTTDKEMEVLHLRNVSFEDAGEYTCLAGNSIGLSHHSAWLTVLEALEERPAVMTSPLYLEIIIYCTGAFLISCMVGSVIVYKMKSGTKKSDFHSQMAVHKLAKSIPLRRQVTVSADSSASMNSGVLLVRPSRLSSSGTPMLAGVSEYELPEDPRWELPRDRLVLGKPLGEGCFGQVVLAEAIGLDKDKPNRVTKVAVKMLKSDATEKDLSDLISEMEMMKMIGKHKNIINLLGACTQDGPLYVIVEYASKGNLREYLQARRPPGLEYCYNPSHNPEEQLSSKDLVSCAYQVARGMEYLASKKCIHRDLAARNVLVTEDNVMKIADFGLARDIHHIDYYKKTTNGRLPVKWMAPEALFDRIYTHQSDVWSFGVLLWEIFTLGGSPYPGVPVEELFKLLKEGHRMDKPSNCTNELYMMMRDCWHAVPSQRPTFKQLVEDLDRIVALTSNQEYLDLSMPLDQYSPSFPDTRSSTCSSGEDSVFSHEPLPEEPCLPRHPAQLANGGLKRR
Sequence of P38a/MAPK14 (Q16539 whole entry): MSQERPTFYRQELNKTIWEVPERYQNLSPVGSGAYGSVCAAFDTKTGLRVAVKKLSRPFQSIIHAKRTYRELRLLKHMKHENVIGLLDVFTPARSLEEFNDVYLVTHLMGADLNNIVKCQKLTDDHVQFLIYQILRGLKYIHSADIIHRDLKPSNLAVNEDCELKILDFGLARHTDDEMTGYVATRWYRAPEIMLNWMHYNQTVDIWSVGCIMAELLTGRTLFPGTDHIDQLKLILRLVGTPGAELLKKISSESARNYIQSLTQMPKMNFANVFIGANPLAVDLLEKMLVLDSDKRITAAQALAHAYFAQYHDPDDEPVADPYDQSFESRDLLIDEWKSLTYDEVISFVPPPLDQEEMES
Sequence of JNK2 (P45984 whole entry): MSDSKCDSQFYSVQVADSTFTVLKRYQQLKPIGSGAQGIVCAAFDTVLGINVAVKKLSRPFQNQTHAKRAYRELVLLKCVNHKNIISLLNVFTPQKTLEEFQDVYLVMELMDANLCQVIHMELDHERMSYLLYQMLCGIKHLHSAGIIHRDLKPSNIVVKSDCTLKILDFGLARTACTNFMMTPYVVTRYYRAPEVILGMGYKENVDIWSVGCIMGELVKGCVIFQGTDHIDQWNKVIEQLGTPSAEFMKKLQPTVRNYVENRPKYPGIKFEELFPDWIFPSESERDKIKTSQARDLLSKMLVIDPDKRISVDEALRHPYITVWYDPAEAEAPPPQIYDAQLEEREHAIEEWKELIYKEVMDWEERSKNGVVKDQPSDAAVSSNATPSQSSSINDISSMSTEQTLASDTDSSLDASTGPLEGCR
Sequence of CK1g1 (Q9HCP0 whole entry): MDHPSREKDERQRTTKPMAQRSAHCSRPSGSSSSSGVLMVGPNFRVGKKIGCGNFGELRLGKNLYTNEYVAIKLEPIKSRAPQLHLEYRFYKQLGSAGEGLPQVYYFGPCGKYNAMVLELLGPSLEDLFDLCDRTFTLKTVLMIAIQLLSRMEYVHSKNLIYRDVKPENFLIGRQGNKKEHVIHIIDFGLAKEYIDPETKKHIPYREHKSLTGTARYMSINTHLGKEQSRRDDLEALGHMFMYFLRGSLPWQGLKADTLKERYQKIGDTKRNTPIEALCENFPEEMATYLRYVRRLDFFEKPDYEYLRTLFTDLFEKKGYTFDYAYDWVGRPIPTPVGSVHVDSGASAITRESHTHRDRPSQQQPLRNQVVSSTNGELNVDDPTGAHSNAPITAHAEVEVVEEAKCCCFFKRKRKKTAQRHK
Sequence of CK1g3 (Q9Y6M4 whole entry): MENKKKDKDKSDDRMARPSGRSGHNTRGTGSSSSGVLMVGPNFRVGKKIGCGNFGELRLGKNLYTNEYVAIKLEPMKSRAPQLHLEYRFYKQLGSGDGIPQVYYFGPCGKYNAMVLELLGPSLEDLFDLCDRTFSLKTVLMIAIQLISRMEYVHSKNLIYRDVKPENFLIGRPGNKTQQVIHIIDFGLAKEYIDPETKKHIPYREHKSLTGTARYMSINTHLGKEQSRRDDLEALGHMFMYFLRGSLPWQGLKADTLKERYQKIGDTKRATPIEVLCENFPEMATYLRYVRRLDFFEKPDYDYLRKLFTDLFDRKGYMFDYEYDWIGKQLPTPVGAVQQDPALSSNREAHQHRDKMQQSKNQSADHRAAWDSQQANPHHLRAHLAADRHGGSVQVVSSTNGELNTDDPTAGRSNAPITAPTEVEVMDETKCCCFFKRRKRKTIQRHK

In the case of `NC(=O)c1c(N)c(C(=O)c2ccc(F)cc2)n2ccccc12` [Comparative Compound 987, 2-amino-3-[(4-fluorophenyl)carbonyl]indolizine-1-carboxamide], the “% of remaining activity (relative to DMSO)” value (CK1a1; listed as Cmp 987) is reported as 17.57%, the remaining activity at 10 µM (CK1a1; [2]) is reported as 20.3% and the “% of remaining activity (relative to DMSO)” value (ABL2/ARG; listed as Cmp 987) is reported as 83.33%. For the same molecule, the remaining activity at 10 µM (ABL2/ARG; [2]) was 88.1%, the “% of remaining activity (relative to DMSO)” value (ALK5/TGFBR1; listed as Cmp 987) was 37.80% and the remaining activity at 10 µM (ALK5/TGFBR1; [2]) was 39.8%. For the same molecule, the “% of remaining activity (relative to DMSO)” value (CDK5/p25; listed as Cmp 987) was 91.79%, the remaining activity at 10 µM (CDK5/p25; [2]) was 98.2% and the “% of remaining activity (relative to DMSO)” value (CK1e; listed as Cmp 987) was 18.19%. The remaining activity at 10 µM (CK1e; [2]) was 20.1%, the “% of remaining activity (relative to DMSO)” value (CK1g1; listed as Cmp 987) was 99.58% and the remaining activity at 10 µM (CK1g1; [2]) was 104%. For the same molecule, the “% of remaining activity (relative to DMSO)” value (CK1g2; listed as Cmp 987) was 78.23%, the remaining activity at 10 µM (CK1g2; [2]) was 77.7% and the “% of remaining activity (relative to DMSO)” value (CK1g3; listed as Cmp 987) was 97.42%. The remaining activity at 10 µM (CK1g3; [2]) was 101%, the “% of remaining activity (relative to DMSO)” value (CLK2; listed as Cmp 987) was 72.17% and the remaining activity at 10 µM (CLK2; [2]) was 72.7%. For the same molecule, the “% of remaining activity (relative to DMSO)” value (EGFR; listed as Cmp 987) was 34.51%, the remaining activity at 10 µM (EGFR; [2]) was 32% and the “% of remaining activity (relative to DMSO)” value (EPHA2; listed as Cmp 987) was 50.05%. The remaining activity at 10 µM (EPHA2; [2]) was 49.4%, the “% of remaining activity (relative to DMSO)” value (FGFR1; listed as Cmp 987) was 86.54% and the remaining activity at 10 µM (FGFR1; [2]) was 78.7%. The “% of remaining activity (relative to DMSO)” value (GSK3B; listed as Cmp 987) was 68.98%, the remaining activity at 10 µM (GSK3B; [2]) was 70% and the “% of remaining activity (relative to DMSO)” value (JNK2; listed as Cmp 987) was 63.80%. The remaining activity at 10 µM (JNK2; [2]) was 60%, the “% of remaining activity (relative to DMSO)” value (KDR/VEGFR2; listed as Cmp 987) was 83.06% and the remaining activity at 10 µM (KDR/VEGFR2; [2]) was 90.3%. For the same molecule, the “% of remaining activity (relative to DMSO)” value (LCK; listed as Cmp 987) was 58.89%, the remaining activity at 10 µM (LCK; [2]) was 63.9% and the “% of remaining activity (relative to DMSO)” value (MSK1/RPS6KA5; listed as Cmp 987) was 87.76%. The remaining activity at 10 µM (MSK1/RPS6KA5; [2]) was 91.4%, the “% of remaining activity (relative to DMSO)” value (P38a/MAPK14; listed as Cmp 987) was 17.83^$ % and the remaining activity at 10 µM (P38a/MAPK14; [2]) was 17.6%. For the same molecule, the “% of remaining activity (relative to DMSO)” value (PDK1/PDPK1; listed as Cmp 987) was 98.31%, the remaining activity at 10 µM (PDK1/PDPK1; [2]) was 95% and the “% of remaining activity (relative to DMSO)” value (PIM3; listed as Cmp 987) was 75.10%. The remaining activity at 10 µM (PIM3; [2]) was 88.8%, the “% of remaining activity (relative to DMSO)” value (PKA; listed as Cmp 987) was 33.43% and the remaining activity at 10 µM (PKA; [2]) was 36.9%. The “% of remaining activity (relative to DMSO)” value (PKCb2; listed as Cmp 987) was 66.13%, the remaining activity at 10 µM (PKCb2; [2]) was 73% and the “% of remaining activity (relative to DMSO)” value (RIPK2; listed as Cmp 987) was 40.46%. For the same molecule, the remaining activity at 10 µM (RIPK2; [2]) was 36.3%, the “% of remaining activity (relative to DMSO)” value (ROCK1; listed as Cmp 987) was 92.49% and the remaining activity at 10 µM (ROCK1; [2]) was 96.9%. The “% of remaining activity (relative to DMSO)” value (TNIK; listed as Cmp 987) was 69.49%, the remaining activity at 10 µM (TNIK; [2]) was 68.5% and the “% of remaining activity (relative to DMSO)” value (YES/YES1; listed as Cmp 987) was 40.00%. The remaining activity at 10 µM (YES/YES1; [2]) was 42.8%, the “% of remaining activity (relative to DMSO)” value ([1]; CK1d, 10 μM compound, duplicate, listed as Cmp 987) was 5.40% and the remaining activity at 10 µM ([1]; CK1d, 10 μM compound, duplicate, read-out: % of remaining activity (relative to DMSO)) was 5.71%. The IC50 [1] was 310 nM.
An IC50 [1] of 113 nM was found for `O=C1Nc2ccc(I)cc2/C1=C/c1cc(Br)c(O)c(Br)c1` [GW5074] in this work.
